Experimental data published in patent US12077503B2, “Substituted cyclic amides and their use as herbicides” (FMC CORPORATION, priority 2015, dated 2024).

Columns and labels:
Format in all cases: in vivo
[1] = tested on: velvetleaf (Abutilon theophrasti); assay: Test G Post-Emergence Protocol; conditions: Abutilon theophrasti, post-emergence, 312 h, read-out: Velvetleaf damage rating; for pest or weed control at 15.625 g/ha: 15.625 g ai/ha, evaluated after 13 days (100=total damage to plant; 0=no damage to plant); for pest or weed control at 62.5 g/ha: 62.5 g ai/ha; for pest or weed control at 62.5 g/ha / pest or weed control at 250 g/ha: evaluated after 13 days, 100=total damage to plant, 0=no damage to plant; for pest or weed control at 250 g/ha: 250 g ai/ha
In short: (§1)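 Sow in soil; grow 8 d (24/16 °C, 14 h light, 65% humidity); spray 15.625/62.5/250 g/ha in acetone:water 50:50 + 0.5% Tween 20; grow on, water twice daily; score damage 0–100 at 13 d.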

corn (Zea mays) [2] = assay: Test G Post-Emergence Protocol; conditions: Zea mays, post-emergence, 312 h, read-out: Corn damage rating; for plant injury at 15.625 g/ha: 15.625 g ai/ha, evaluated after 13 days (100=total damage to plant; 0=no damage to plant); for plant injury at 62.5 g/ha: 62.5 g ai/ha; for plant injury at 62.5 g/ha / plant injury at 250 g/ha: evaluated after 13 days, 100=total damage to plant, 0=no damage to plant; for plant injury at 250 g/ha: 250 g ai/ha
In short: as §1

[3] = tested on: barnyardgrass (Echinochloa crus-galli); assay: Test G Post-Emergence Protocol; conditions: Echinochloa crus-galli, post-emergence, 312 h, read-out: Barnyardgrass damage rating; for pest or weed control at 15.625 g/ha: 15.625 g ai/ha, evaluated after 13 days (100=total damage to plant; 0=no damage to plant); for pest or weed control at 62.5 g/ha: 62.5 g ai/ha; for pest or weed control at 62.5 g/ha / pest or weed control at 250 g/ha: evaluated after 13 days, 100=total damage to plant, 0=no damage to plant; for pest or weed control at 250 g/ha: 250 g ai/ha
In short: as §1

[4] = tested on: redroot pigweed (Amaranthus retroflexus); assay: Test G Post-Emergence Protocol; conditions: Amaranthus retroflexus, post-emergence, 312 h, read-out: Pigweed, Redroot damage rating; for pest or weed control at 15.625 g/ha: 15.625 g ai/ha, evaluated after 13 days (100=total damage to plant; 0=no damage to plant); for pest or weed control at 62.5 g/ha: 62.5 g ai/ha; for pest or weed control at 62.5 g/ha / pest or weed control at 250 g/ha: evaluated after 13 days, 100=total damage to plant, 0=no damage to plant; for pest or weed control at 250 g/ha: 250 g ai/ha
In short: as §1

[5] = tested on: giant foxtail (Setaria faberi); assay: Test G Post-Emergence Protocol; conditions: Setaria faberi, post-emergence, 312 h, read-out: Foxtail, Giant damage rating; for pest or weed control at 15.625 g/ha: 15.625 g ai/ha, evaluated after 13 days (100=total damage to plant; 0=no damage to plant); for pest or weed control at 62.5 g/ha: 62.5 g ai/ha; for pest or weed control at 62.5 g/ha / pest or weed control at 250 g/ha: evaluated after 13 days, 100=total damage to plant, 0=no damage to plant; for pest or weed control at 250 g/ha: 250 g ai/ha
In short: as §1

[6] = tested on: ivy-leaved morning glory (Ipomoea hederacea); assay: Test G Post-Emergence Protocol; conditions: Ipomoea, post-emergence, 312 h, read-out: Morningglory, Ivy-leaved damage rating; for pest or weed control at 15.625 g/ha: 15.625 g ai/ha, evaluated after 13 days (100=total damage to plant; 0=no damage to plant); for pest or weed control at 62.5 g/ha: 62.5 g ai/ha; for pest or weed control at 62.5 g/ha / pest or weed control at 250 g/ha: evaluated after 13 days, 100=total damage to plant, 0=no damage to plant; for pest or weed control at 250 g/ha: 250 g ai/ha
In short: as §1

[7] = tested on: velvetleaf (Abutilon theophrasti); assay: Test G Pre-Emergence Protocol; conditions: Abutilon theophrasti, pre-emergence, 312 h, evaluated after 13 days; for pest or weed control at 15.625 g/ha: 15.625 g ai/ha; for pest or weed control at 15.625 g/ha / pest or weed control at 250 g/ha: read-out: Velvetleaf damage rating (100=total damage to plant; 0=no damage to plant); for pest or weed control at 62.5 g/ha: 62.5 g ai/ha, 100=total damage to plant, 0=no damage to plant, read-out: Velvetleaf damage rating; for pest or weed control at 250 g/ha: 250 g ai/ha
In short: (§2)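 Pots of seeds in standard soil were grown for one day in a glasshouse (24/16 °C day/night, 14 h light, 65% humidity), then sprayed with compound in acetone/water 50:50 with 0.5% Tween 20 at 15.625, 62.5 or 250 g/ha. Damage was scored after 13 days on a 0 (none) to 100 (total) scale.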

corn (Zea mays) [8] = assay: Test G Pre-Emergence Protocol; conditions: Zea mays, pre-emergence, 312 h, evaluated after 13 days; for plant injury at 15.625 g/ha: 15.625 g ai/ha; for plant injury at 15.625 g/ha / plant injury at 250 g/ha: read-out: Corn damage rating (100=total damage to plant; 0=no damage to plant); for plant injury at 62.5 g/ha: 62.5 g ai/ha, 100=total damage to plant, 0=no damage to plant, read-out: Corn damage rating; for plant injury at 250 g/ha: 250 g ai/ha
In short: as §2

[9] = tested on: barnyardgrass (Echinochloa crus-galli); assay: Test G Pre-Emergence Protocol; conditions: Echinochloa crus-galli, pre-emergence, 312 h, evaluated after 13 days; for pest or weed control at 15.625 g/ha: 15.625 g ai/ha; for pest or weed control at 15.625 g/ha / pest or weed control at 250 g/ha: read-out: Barnyardgrass damage rating (100=total damage to plant; 0=no damage to plant); for pest or weed control at 62.5 g/ha: 62.5 g ai/ha, 100=total damage to plant, 0=no damage to plant, read-out: Barnyardgrass damage rating; for pest or weed control at 250 g/ha: 250 g ai/ha
In short: as §2

[10] = tested on: redroot pigweed (Amaranthus retroflexus); assay: Test G Pre-Emergence Protocol; conditions: Amaranthus retroflexus, pre-emergence, 312 h, evaluated after 13 days; for pest or weed control at 15.625 g/ha: 15.625 g ai/ha; for pest or weed control at 15.625 g/ha / pest or weed control at 250 g/ha: read-out: Pigweed, Redroot damage rating (100=total damage to plant; 0=no damage to plant); for pest or weed control at 62.5 g/ha: 62.5 g ai/ha, 100=total damage to plant, 0=no damage to plant, read-out: Pigweed, Redroot damage rating; for pest or weed control at 250 g/ha: 250 g ai/ha
In short: as §2

[11] = tested on: giant foxtail (Setaria faberi); assay: Test G Pre-Emergence Protocol; conditions: Setaria faberi, pre-emergence, 312 h, evaluated after 13 days; for pest or weed control at 15.625 g/ha: 15.625 g ai/ha; for pest or weed control at 15.625 g/ha / pest or weed control at 250 g/ha: read-out: Foxtail, Giant damage rating (100=total damage to plant; 0=no damage to plant); for pest or weed control at 62.5 g/ha: 62.5 g ai/ha, 100=total damage to plant, 0=no damage to plant, read-out: Foxtail, Giant damage rating; for pest or weed control at 250 g/ha: 250 g ai/ha
In short: as §2

[12] = tested on: ivy-leaved morning glory (Ipomoea hederacea); assay: Test G Pre-Emergence Protocol; conditions: Ipomoea, pre-emergence, 312 h, evaluated after 13 days; for pest or weed control at 15.625 g/ha: 15.625 g ai/ha; for pest or weed control at 15.625 g/ha / pest or weed control at 250 g/ha: read-out: Morningglory, Ivy-leaved damage rating (100=total damage to plant; 0=no damage to plant); for pest or weed control at 250 g/ha: 250 g ai/ha
In short: as §2

Row | Compound | pest or weed control at 15.625 g/ha [1] [%] | pest or weed control at 62.5 g/ha [1] [%] | pest or weed control at 250 g/ha [1] [%] | plant injury at 15.625 g/ha (corn (Zea mays) [2]) [%] | plant injury at 62.5 g/ha (corn (Zea mays) [2]) [%] | plant injury at 250 g/ha (corn (Zea mays) [2]) [%] | pest or weed control at 15.625 g/ha [3] [%] | pest or weed control at 62.5 g/ha [3] [%] | pest or weed control at 250 g/ha [3] [%] | pest or weed control at 15.625 g/ha [4] [%] | pest or weed control at 62.5 g/ha [4] [%] | pest or weed control at 250 g/ha [4] [%] | pest or weed control at 15.625 g/ha [5] [%] | pest or weed control at 62.5 g/ha [5] [%] | pest or weed control at 250 g/ha [5] [%] | pest or weed control at 15.625 g/ha [6] [%] | pest or weed control at 62.5 g/ha [6] [%] | pest or weed control at 250 g/ha [6] [%] | pest or weed control at 15.625 g/ha [7] [%] | pest or weed control at 62.5 g/ha [7] [%] | also measured
1 | COc1ccc([C@@H]2CN(C)C(=O)[C@H]2C(=O)Nc2cccc(F)c2C)cc1Cl (racemic) [Compound 1793] | 0 | 10 | 30 | 10 | 30 | 50 | 30 | 70 | 80 | 0 | 0 | 0 | 70 | 80 | 80 | 0 | 10 | 70 | 0 | 0 | pest or weed control at 250 g/ha [7]: 30%; plant injury at 15.625 g/ha (corn (Zea mays) [8]): 0%; plant injury at 62.5 g/ha (corn (Zea mays) [8]): 20%; plant injury at 250 g/ha (corn (Zea mays) [8]): 40%; pest or weed control at 15.625 g/ha [9]: 20%; pest or weed control at 62.5 g/ha [9]: 70%; pest or weed control at 250 g/ha [9]: 90%; pest or weed control at 15.625 g/ha [10]: 0%; pest or weed control at 62.5 g/ha [10]: 0%; pest or weed control at 250 g/ha [10]: 0%; pest or weed control at 15.625 g/ha [11]: 30%; pest or weed control at 62.5 g/ha [11]: 90%; pest or weed control at 250 g/ha [11]: 90%; pest or weed control at 15.625 g/ha [12]: 0%; pest or weed control at 62.5 g/ha ([12]; 62.5 g ai/ha, 100=total damage to plant, 0=no damage to plant, read-out: Morningglory, Ivy-leaved damage rating): 0%; pest or weed control at 250 g/ha [12]: 10%
2 | CON1C[C@H](c2ccc(F)c(F)c2)[C@@H](C(=O)Nc2ccc(F)c(F)c2F)C1=O [Compound 1679] | 0 | 20 | 40 | 0 | 0 | 60 | 40 | 80 | 90 | 0 | 30 | 50 | 80 | 80 | 80 | 0 | 50 | 40 | 10 | 10 | pest or weed control at 250 g/ha [7]: 60%; plant injury at 15.625 g/ha (corn (Zea mays) [8]): 0%; plant injury at 62.5 g/ha (corn (Zea mays) [8]): 0%; plant injury at 250 g/ha (corn (Zea mays) [8]): 60%; pest or weed control at 15.625 g/ha [9]: 50%; pest or weed control at 62.5 g/ha [9]: 80%; pest or weed control at 250 g/ha [9]: 90%; pest or weed control at 15.625 g/ha [10]: 10%; pest or weed control at 62.5 g/ha [10]: 10%; pest or weed control at 250 g/ha [10]: 30%; pest or weed control at 15.625 g/ha [11]: 90%; pest or weed control at 62.5 g/ha [11]: 90%; pest or weed control at 250 g/ha [11]: 90%; pest or weed control at 15.625 g/ha [12]: 0%; pest or weed control at 250 g/ha [12]: 10%
